*: point of attachment. Cbz = O=C(OCc1ccccc1)*; CH2F = FC*
Assays:
[1] = test system: procaspase-6 cleavage in primary hepatocytes; assay: Procaspase-6 cleavage induced by TNFα and CHX in primary hepatocytes (IB); type: cell-based, mice; details: 10 μM pretreatment 1 hr, then 30 μg/ml CHX and 50 ng/ml TNFα 2 hrs
From the text: FIGS. 5A-5K. AMPK phosphorylates caspase-6 to inhibit its cleavage and activation. FIG. 5A. […] IB analysis of cell lysates. n=3. Mean±SD. *, P<0.05, two-way ANOVA. FIG. 5B. […] Cell lysates were subject to caspase-6 activity assay. Mean±SD. *, P<0.05. FIG. 5C. Caspase-6 Ser^257 locates within AMPK substrate motif. FIG. 5C. discloses SEQ ID NOS 57-63, respectively, in order of appearance. FIG. 5D. In vitro kinase assay using recombinant caspase-6, and recombinant AMPKα1β1γ1 or AMPKα2β1γ1 active kinase. FIG. 5E. Alignment of caspase-6 sequence. FIG. 5E. discloses SEQ ID NOS 64-67, respectively, in order of appearance. FIG. 5F. HEK293T cells overexpressing caspase-6-myc WT, S^257A, S^257D or S^257E mutant were treated with 10 μg/ml CHX and 25 ng/ml TNFα for 2 hrs. IB analysis of cell lysates. FIGS. 5G-5J. C57BL/6J mice were fed CD-HFD for 6 weeks, followed by intraperitoneally injection of 25 mg/kg A-769662 or vehicle daily for 2 weeks while continuous CD-HI-D. Mice were sacrificed 6 hrs after last injection. FIG. 5G. IB analysis of liver lysates. n=5. FIG. 5H. Liver lysates were subject to caspase-6 activity assay. n=7. FIG. 5I. Liver sections stained as indicated therein (aCasp6 and DAPI); in the merged image sections, the different stains correspond to the grayscale shades as indicated in the single stained images to the left. Scale bar=50 μm. […] Quantification of aCasp6 staining per field in FIG. 5I. n=7. […]

[2] = test system: CD-HFD-fed Flox and LAKO mice; assay: Caspase-6 inhibitor Z-VEID-FMK in CD-HFD-fed Flox and LAKO mice; type: in vivo
From the text: FIG. 4A. […] Scale bar=50 μm. FIG. 4B. […] FIG. 4F. […] Scale bar=100 μm. FIG. 4G. […] Scale bar=50 μm.
FIG. 6A. […] FIG. 6B. […] FIG. 6C. […] FIG. 6D. […] FIG. 6E. […] FIG. 6F.
FIGS. 14A-14G. […] FIG. 14A. […] Scale bar=100 μm.

[3] = test system: cleaved caspase-3 and -7 in primary hepatocytes; assay: Caspase cascade after CHX plus TNFα and medium change in primary hepatocytes (IB); type: cell-based, mice; details: 25 μM pretreatment 1 hr, CHX and TNFα 2 hrs, medium changed for 4 hrs
Method: FIGS. 16A-16D. Caspase-6 sustain activation of caspase cascade to induce apoptosis. FIG. 16A. HepG2 cells transfected with scrambled RNA or caspase-6 siRNA were treated with vehicle or 300 μg/ml CHX and 50 ng/ml TNFα for 20 hrs. Viability was measured by CCK-8 assay. Data are shown as mean±SD. *, P<0.05, two-way ANOVA. FIG. 16B. HepG2 cells transfected with scrambled RNA or Caspase-6 siRNA were treated with vehicle or 30 μg/ml CHX and 50 ng/ml TNFα for 2 hrs. Medium was changed to remove treatment. Cells were harvested at indicated time points. Cell lysates were subject to IB analysis. FIG. 16C. Isolated primary hepatocytes were pretreated with 25 μM Z-VEID-FMK (VEID) (SEQ ID NO: 71) for 1 hr and treated with 30 μg/ml CHX and 50 ng/ml TNFα for 2 hrs. Medium was changed to remove treatment for 4 hrs. Cell lysates were subject to IB analysis. FIG. 16D. Proposed model for roles of AMPK/caspase-6 axis in the regulation of NASH-associated liver damage. […]
Western blot was performed as previously described(11). […] Supernatants were collected and analyzed with BCA (Thermo Scientific) to quantify protein content. […] Individual proteins were detected with specific antibodies and visualized on film using horseradish peroxidase-conjugated secondary antibodies (Fisher Scientific) and SuperSignal West Pico PLUS Chemilunminescent Substrate (Thermo Scientific).

[4] = both Flox and LAKO mice, 5 mg/kg i.p. every other day for two weeks

Compound | procaspase-6 cleavage caused by TNFα and CHX [1] | difference in liver damage between Flox and LAKO mice ([2]; 5 mg/kg i.p. every other day for two weeks) | cytosolic cytochrome c (liver fractions, IB) ([2]; both Flox and LAKO mice, 5 mg/kg i.p. every other day for 2 weeks) | liver fibrosis (Sirius red fibrosis area, liver hydroxyproline) [2, 4] | number of apoptotic hepatocytes (TUNEL) [2, 4] | serum ALT activity [2, 4] | cleaved caspase-3 and -7 [3]
COC[C@@H]1CCCN1S(=O)(=O)c1ccc2c(c1)C(=O)C(=O)N2 [caspase-3 and -7 inhibitor] | largely attenuated |  |  |  |  |  | 
Z-VEID-FMK (Cbz-VEID-CH2F) |  | abrogated | decreased | reduced | significantly reduced | decreased | significant decrease
